Data on two compounds can be found in PMC5584945, “Evaluation of robenidine analog NCL195 as a novel broad-spectrum antibacterial agent” (PLoS ONE, 2017).

SMILES strings stand for the structures.

For one series, the system named is S. pneumoniae D39. Put plainly: TEM morphometric analysis of cell membrane. The format is cell-based, Streptococcus pneumoniae. To be noted: 16 μg/ml, 6 h exposure. The method, then:
Morphological appearance and morphometric analysis of the cell membrane of S. pneumoniae D39 after exposure to either 1 μg/ml, 4 μg/ml or 16 μg/ml of NCL812 was determined using TEM, as described in S1 File (Supplementary Methods). For S. aureus ATCC 29213, macromolecular (DNA, RNA, protein, cell wall, and lipid) synthesis inhibition studies were performed using concentrations of NCL812 that were equivalent to 0, 0.25, 0.5, 1, 2, 4 or 8-fold the MIC value (4 μg/ml), as detailed in S1 File (Supplementary Methods).
Effect of NCL812 on S. pneumoniae D39 cell membrane ultra-structure. Morphological appearance and morphometric analysis of the cell membrane of S. pneumoniae D39 after exposure to either 1 µg/ml, 4 µg/ml or 16 µg/ml of NCL812 was determined using TEM. […] Cultures were then exposed to either 1 µg/ml, 4 µg/ml or 16 µg/ml of NCL812 and harvested at 6 or 12 h by centrifugation at […] for 20 min and washed twice in 50 ml PBS. Critical time points for TEM work were determined by analyzing trends in the growth curves produced from the kill kinetics studies. Samples were resuspended in PBS containing 20% glycerol and stored at -80°C until required. […]
Samples were fixed using modified protocols defined by a previous study examining cell wall ultrastructure of S. pneumoniae. […] Images were obtained at 130000× magnification and analyzed using analySIS (Olympus Soft Imaging Systems).

A further series relates to mice. To be noted: cited from earlier work.
The next series relates to A. anitratus. Put plainly: MIC, broth micro-dilution. The format is cell-based. The conditions noted are these: Acinetobacter calcoaceticus; one A. anitratus isolate; absence of EDTA. The method, then:
(§1) MICs for NCL812 and its analogs (serial two-fold dilutions commencing at 128 μg/ml) were determined (in duplicate) in round bottom 96-well microtitre trays (Sarstedt 82.1582.001), using the broth micro-dilution method recommended by the Clinical and Laboratory Standards Institute (CLSI). […] MIC50, MIC90 and MIC range for NCL812, NCL195 and NCL219 were calculated against each S. pneumoniae, S. aureus or VRE isolate. To assess the potential activity of NCL195 against Gram-negative bacteria, MICs against Acinetobacter spp, E. coli, K. pneumoniae, P. aeruginosa, Proteus spp and Neisseria meningitidis were performed in the presence or absence of 0.08 mM-20 mM EDTA in a standard checkerboard assay.

The test system of the next series is A. calcoaceticus. Put plainly: MIC, broth micro-dilution. It is filed as cell-based. The conditions noted are these: 8 A. calcoaceticus isolates; absence of EDTA. The method, then: as §1
Series [1] deals with A. baumannii, E. coli, K. pneumoniae and P. aeruginosa. Put plainly: MIC with sub-inhibitory EDTA or polymyxin B, Gram-negative panel. The format is cell-based. The method, then:
as §1

For the compound `Cl.N=C(NN=Cc1ccc(Cl)cc1)NN=Cc1ccc(Cl)cc1` [NCL812, 2,2'-bis[(4-chlorophenyl)methylene] carbonimidic dihydrazide hydrochloride], the Periplasmic space width in the series on S. pneumoniae D39 (untreated 3.91 ± 0.14 nm) is 4.54 ±0.096 nm. For the same compound, the Cell membrane thickness in the series with S. pneumoniae D39 (untreated 4.35 ± 0.24 nm) worked out at 6.43 ± 0.29 nm. The “oral LD50” value with mice is recorded as 150 mg/kg.
By MIC is commonly meant the lowest concentration that inhibits growth of the organism. On to `Cc1ccc(/C=N/Nc2cc(N/N=C/c3ccc(C)cc3)nc(N)n2)cc1` [NCL195, 4,6-bis(2-((E)-4-methylbenzylidene)hydrazinyl)pyrimidin-2-amine], for which the MIC is 4 µg/mL with A. anitratus, 0.25 to 8 µg/mL in series [1] (in the presence of sub-inhibitory concentrations of EDTA) and 0.25 to 1 µg/mL in series [1] (in the presence of sub-inhibitory concentrations of polymyxin B). In the series with A. calcoaceticus, the MIC range was 4 to 32 µg/mL.
